Results as given in patent US20210100788A1, “PALONOSETRON FORMULATIONS AND USES THEREOF” (LUXENA PHARMACEUTICALS, INC., priority 2014, published 2021).
Where a name gives a salt, the structure may show the parent alone.

Test: Particle size distribution of jet milled palonosetron fine powder by HELOS Particle Size Analyzer
Assay type: physicochemical
Description: Palonosetron HCl was milled with a 2-in pancake Jet Mill and flexible containment. The process air was nitrogen. The jet milling was conducted at Catalent Micron Technologies, Malvern, Pa., USA.
The particle size distribution of the palonosetron fine powder, prepared by jet milling, was measured by HELOS Particle Size Analyzer (Sympatec GmbH, Germany) at Micron Technologies, Inc., Malvern, Pa., USA.
The Particle Size Distribution parameters are: • D10: 0.68 μm • D50: 1.39 μm • D90: 2.89 μm • D95: 3.68 μm • D99.5: 6.92 μm • Cumulative % <9 μm: 100%

O=C1c2cccc3c2[C@H](CCC3)CN1[C@@H]1CN2CCC1CC2 [Jet Milled Palonosetron Fine Powder, Palonosetron HCl]
Cumulative % <9 μm: 100%
D10: 0.68 μm
D50: 1.39 μm
D90: 2.89 μm
D95: 3.68 μm
D99.5: 6.92 μm
